Results as given in the NIST ThermoML archive (doi:10.1016/j.fluid.2018.07.012).

Conditions: Fluid (supercritical or subcritical phases), Dynamic light scattering

O=C=O [carbon dioxide]
Conditions	thermal diffusivity [m2/s]
293.55 K, 10990 kPa	4.54e-08
295.33 K, 8060 kPa	3.64e-08
295.4 K, 10050 kPa	4.04e-08
297.27 K, 7520 kPa	2.9e-08
297.45 K, 7000 kPa	2.67e-08
302.29 K, 11020 kPa	3.74e-08
302.43 K, 8030 kPa	2.25e-08
302.5 K, 8980 kPa	2.81e-08
303.34 K, 10000 kPa	3.28e-08
305.32 K, 7050 kPa	3.23e-08
305.77 K, 7510 kPa	1.22e-08
307 K, 8060 kPa	8.8e-09
307.3 K, 9050 kPa	2.14e-08
307.42 K, 10540 kPa	2.76e-08
312.35 K, 8020 kPa	2.68e-08
312.44 K, 9010 kPa	9.3e-09
313.93 K, 10020 kPa	1.71e-08
314.2 K, 11020 kPa	2.66e-08
316.1 K, 7000 kPa	6.47e-08
316.65 K, 7490 kPa	5.72e-08
317.11 K, 9010 kPa	1.99e-08
317.19 K, 10190 kPa	1.4e-08
317.56 K, 8000 kPa	4.32e-08
322.67 K, 10290 kPa	2.13e-08
323.48 K, 11000 kPa	1.97e-08
324.73 K, 9080 kPa	4.26e-08
324.99 K, 8160 kPa	6.12e-08
326.51 K, 7010 kPa	8.98e-08
326.93 K, 7480 kPa	7.92e-08
328.26 K, 11000 kPa	2.63e-08
333.11 K, 11010 kPa	3.22e-08
333.51 K, 9020 kPa	6e-08
333.97 K, 8140 kPa	8.06e-08
334.01 K, 10320 kPa	4.36e-08
336.92 K, 7000 kPa	1.08e-07
337.46 K, 7510 kPa	1.02e-07
343.12 K, 8000 kPa	9.67e-08
343.7 K, 9050 kPa	7.77e-08
343.72 K, 10060 kPa	6.38e-08
343.95 K, 10970 kPa	5.2e-08
345.99 K, 11010 kPa	5.38e-08
346.99 K, 7020 kPa	1.31e-07
347.28 K, 7500 kPa	1.17e-07
353.14 K, 10270 kPa	7.34e-08
353.95 K, 9020 kPa	9.9e-08
354.57 K, 8000 kPa	1.15e-07
356.06 K, 11030 kPa	7.11e-08
357.15 K, 7030 kPa	1.46e-07
357.37 K, 7500 kPa	1.37e-07
363.07 K, 10000 kPa	8.99e-08
363.43 K, 9020 kPa	1.07e-07
364.02 K, 8020 kPa	1.31e-07
365.89 K, 11050 kPa	8.37e-08
367.01 K, 7010 kPa	1.62e-07
367.19 K, 7600 kPa	1.54e-07
373.34 K, 10090 kPa	1.04e-07
373.59 K, 9010 kPa	1.24e-07
374.62 K, 8010 kPa	1.49e-07
375.92 K, 11040 kPa	9.69e-08
377.05 K, 7040 kPa	1.82e-07
377.25 K, 7480 kPa	1.75e-07
382.51 K, 10040 kPa	1.23e-07
383.53 K, 8040 kPa	1.66e-07
383.71 K, 9020 kPa	1.41e-07
385.64 K, 10990 kPa	1.15e-07
386.8 K, 7480 kPa	1.87e-07
386.82 K, 7010 kPa	2.09e-07
392.06 K, 10550 kPa	1.32e-07
393.82 K, 9040 kPa	1.57e-07
394.36 K, 7960 kPa	1.89e-07
395.37 K, 11030 kPa	1.23e-07
396.68 K, 7010 kPa	2.2e-07
396.85 K, 7490 kPa	2.04e-07
402.64 K, 10200 kPa	1.45e-07
403.05 K, 9020 kPa	1.66e-07
403.62 K, 8070 kPa	1.98e-07
405.15 K, 11090 kPa	1.3e-07
406.44 K, 7020 kPa	2.38e-07
406.5 K, 7500 kPa	2.2e-07
